In US20240033234A1, “THERAPEUTIC COMPOUNDS, FORMULATIONS, AND USE THEREOF” (Tvardi Therapeutics, Inc., priority 2022, published 2024):
“And” between values parts separate entries of the source, which are not always exact repeats. Equal entries are not always repeated.

Experiment: Accelerated and long term stability study of TTI-101 (Batch A, Batch B): HPLC assay, purity, impurities and water content after storage at 5° C., 25° C./60% RH, 30° C./65% RH or 40° C./75% RH
Type: physicochemical
Conditions: for Impurities RRT 0.99: RRT of compound of formula (IV); for Impurities RRT 1.06: RRT of Compound 4
Description: Exemplary HPLC conditions: diluent was 0.1% trifluoroacetic acid (TFA) in acetonitrile, Mobile Phase A was 0.05% TFA in water, and Mobile Phase B was 0.05% TFA in acetonitrile, column (Agilent, Eclipse XDB-C18, 3.0×100 mm, particle size 1.8 μm), flow (0.425 mL/min), and detector (280 nm diode array).
Batch A was prepared analogously using Method 3 as described in Example 1. Batch B was prepared according to Method 5 as described in Example 1.
Samples of TTI-101 were stored at 5° C., 25° C./60% RH, 30° C./65% RH, or 40° C./75% RH. TTI-101 was stored in an LDPE bag enclosed with a Nylon cable tie and then transferred to another LDPE bag and enclosed with a Nylon cable tie. The enclosure was put into an HDPE bottle and closed with a polyethylene-lined polypropylene cap. The samples were stored under the above-identified conditions.
The samples were analyzed using HPLC with the exemplary conditions identified above. Relative retention time (RRT) for Compound 5 was about 0.83, Compound 4 was about 1.05-1.06, Compound 6 was about 1.15-1.17, and compound of formula (IV) was about 0.99.
• NA not applicable • NQ ≥0.02% and <0.05% • Avg average • Cmpd compound • — no peak • M month • RRT relative retention time

[1] = 5° C., 0 M, P1/P2, listed as Batch A
[2] = 5° C., 2 M, P1/P2, listed as Batch A
[3] = 5° C., 3 M, P1/P2, listed as Batch A
[4] = 5° C., 12 M, P1/P2, listed as Batch A
[5] = 25° C./60% RH, 0 M, P1/P2, listed as Batch A
[6] = 25° C./60% RH, 2 M, P1/P2, listed as Batch A

Assay (%) (5° C., 0 M, Avg): 99.8%
Impurities RRT 1.06 (Cmpd 4) (5° C., 0 M, Avg): NQ (≥0.02% and <0.05%)
Impurities RRT 1.17 (Cmpd 6) (5° C., 0 M, Avg): 0.13 area %
Impurities RRT 1.32 (5° C., 0 M, Avg): NQ (≥0.02% and <0.05%)
Impurities Total (5° C., 0 M, Avg): 0.1 area %
Purity (%) (5° C., 0 M, Avg): 99.8%
Water Content (%) (5° C., 0 M, Avg): <0.04%
Impurities RRT 0.99 (5° C., 0 M, Avg): NQ (≥0.02% and <0.05%)
Impurities RRT 1.32 (5° C., 0 M, P1/P2): NQ (≥0.02% and <0.05%)
Impurities Total (5° C., 0 M, P1/P2): 0.1 area %
Purity (%) (5° C., 0 M, P1/P2): 99.8%
Water Content (%) (5° C., 0 M, P1/P2): <0.04%
Assay (%) [1]: 99.9% and 99.7%
Impurities RRT 1.17 (Cmpd 6) [1]: 0.13 area % and 0.12 area %
Assay (%) (5° C., 2 M, Avg): 100.2%
Impurities RRT 1.16 (Cmpd 6) (5° C., 2 M, Avg): 0.08 area %
Impurities Total (5° C., 2 M, Avg): 0.1 area %
Purity (%) (5° C., 2 M, Avg): 99.9%
Water Content (%) (5° C., 2 M, Avg): <0.04%
Impurities RRT 0.99 (5° C., 2 M, Avg): NQ (≥0.02% and <0.05%)
Water Content (%) (5° C., 2 M, P1/P2): <0.04%
Assay (%) [2]: 99.7% and 100.7%
Purity (%) [2]: 99.9% and 100.0%
Assay (%) (5° C., 3 M, Avg): 99.9%
Impurities RRT 1.06 (Cmpd 4) (5° C., 3 M, Avg): 0.07 area %
Impurities RRT 1.16 (Cmpd 6) (5° C., 3 M, Avg): 0.22 area %
Impurities Total (5° C., 3 M, Avg): 0.3 area %
Purity (%) (5° C., 3 M, Avg): 99.7%
Water Content (%) (5° C., 3 M, Avg): <0.04%
Impurities RRT 1.16 (Cmpd 6) (5° C., 3 M, P1/P2): 0.22 area %
Impurities Total (5° C., 3 M, P1/P2): 0.3 area %
Purity (%) (5° C., 3 M, P1/P2): 99.7%
Water Content (%) (5° C., 3 M, P1/P2): <0.04%
Assay (%) [3]: 100.2% and 99.5%
Impurities RRT 1.06 (Cmpd 4) [3]: 0.06 area % and 0.07 area %
Assay (%) (5° C., 6 M, Avg): 99.4%
Impurities RRT 1.15 (Cmpd 6) (5° C., 6 M, Avg): 0.13 area %
Impurities Total (5° C., 6 M, Avg): 0.1 area %
Purity (%) (5° C., 6 M, Avg): 99.9%
Water Content (%) (5° C., 6 M, Avg): <0.04%
Impurities RRT 1.15 (Cmpd 6) (5° C., 6 M, P1/P2): 0.13 area %
Impurities Total (5° C., 6 M, P1/P2): 0.1 area %
Purity (%) (5° C., 6 M, P1/P2): 99.9%
Water Content (%) (5° C., 6 M, P1/P2): <0.04%
Assay (%) (5° C., 6 M, P1/P2, listed as Batch A): 100.6% and 98.3%
Assay (%) (5° C., 9 M, Avg): 99.6%
Impurities RRT 1.16 (Cmpd 6) (5° C., 9 M, Avg): 0.12 area %
Impurities Total (5° C., 9 M, Avg): 0.1 area %
Purity (%) (5° C., 9 M, Avg): 99.9%
Water Content (%) (5° C., 9 M, Avg): <0.04%
Assay (%) (5° C., 9 M, P1/P2): 99.6%
Impurities Total (5° C., 9 M, P1/P2): 0.1 area %
Purity (%) (5° C., 9 M, P1/P2): 99.9%
Water Content (%) (5° C., 9 M, P1/P2): <0.04%
Impurities RRT 1.16 (Cmpd 6) (5° C., 9 M, P1/P2, listed as Batch A): 0.12 area % and 0.11 area %
Assay (%) (5° C., 12 M, Avg): 99.2%
Impurities RRT 1.06 (Cmpd 4) (5° C., 12 M, Avg): NQ (≥0.02% and <0.05%)
Impurities RRT 1.16 (Cmpd 6) (5° C., 12 M, Avg): 0.39 area %
Impurities Total (5° C., 12 M, Avg): 0.4 area %
Purity (%) (5° C., 12 M, Avg): 99.6%
Water Content (%) (5° C., 12 M, Avg): 0.04%
Impurities RRT 1.06 (Cmpd 4) (5° C., 12 M, P1/P2): NQ (≥0.02% and <0.05%)
Impurities RRT 1.16 (Cmpd 6) (5° C., 12 M, P1/P2): 0.39 area %
Impurities Total (5° C., 12 M, P1/P2): 0.4 area %
Purity (%) (5° C., 12 M, P1/P2): 99.6%
Assay (%) [4]: 99.1% and 99.2%
Water Content (%) [4]: <0.04% and 0.04%
Assay (%) (5° C., 18 M, Avg): 98.5%
Impurities RRT 1.15 (Cmpd 6) (5° C., 18 M, Avg): 0.10 area %
Impurities Total (5° C., 18 M, Avg): 0.1 area %
Purity (%) (5° C., 18 M, Avg): 99.9%
Water Content (%) (5° C., 18 M, Avg): <0.04%
Impurities RRT 1.15 (Cmpd 6) (5° C., 18 M, P1/P2): 0.10 area %
Impurities Total (5° C., 18 M, P1/P2): 0.1 area %
Purity (%) (5° C., 18 M, P1/P2): 99.9%
Water Content (%) (5° C., 18 M, P1/P2): <0.04%
Impurities RRT 1.06 (5° C., 18 M, P1/P2): NQ (≥0.02% and <0.05%)
Assay (%) (5° C., 18 M, P1/P2, listed as Batch A): 97.9% and 99.2%
Assay (%) (5° C., 24 M, Avg): 99.7%
Impurities RRT 1.16 (Cmpd 6) (5° C., 24 M, Avg): 0.11 area %
Impurities Total (5° C., 24 M, Avg): 0.1 area %
Purity (%) (5° C., 24 M, Avg): 99.9%
Water Content (%) (5° C., 24 M, Avg): <0.04%
Impurities RRT 1.16 (Cmpd 6) (5° C., 24 M, P1/P2): 0.11 area %
Impurities Total (5° C., 24 M, P1/P2): 0.1 area %
Purity (%) (5° C., 24 M, P1/P2): 99.9%
Water Content (%) (5° C., 24 M, P1/P2): <0.04%
Impurities RRT 1.06 (5° C., 24 M, P1/P2): NQ (≥0.02% and <0.05%)
Assay (%) (5° C., 24 M, P1/P2, listed as Batch A): 100.2% and 99.3%
Assay (%) (25° C./60% RH, 0 M, Avg): 99.8%
Impurities RRT 1.06 (Cmpd 4) (25° C./60% RH, 0 M, Avg): NQ (≥0.02% and <0.05%)
Impurities RRT 1.17 (Cmpd 6) (25° C./60% RH, 0 M, Avg): 0.13 area %
Impurities RRT 1.32 (25° C./60% RH, 0 M, Avg): NQ (≥0.02% and <0.05%)
Impurities Total (25° C./60% RH, 0 M, Avg): 0.1 area %
Purity (%) (25° C./60% RH, 0 M, Avg): 99.8%
Water Content (%) (25° C./60% RH, 0 M, Avg): <0.04%
Impurities RRT 0.99 (25° C./60% RH, 0 M, Avg): NQ (≥0.02% and <0.05%)
Impurities RRT 1.32 (25° C./60% RH, 0 M, P1/P2): NQ (≥0.02% and <0.05%)
Impurities Total (25° C./60% RH, 0 M, P1/P2): 0.1 area %
Purity (%) (25° C./60% RH, 0 M, P1/P2): 99.8%
Water Content (%) (25° C./60% RH, 0 M, P1/P2): <0.04%
Assay (%) [5]: 99.9% and 99.7%
Impurities RRT 1.17 (Cmpd 6) [5]: 0.13 area % and 0.12 area %
Assay (%) (25° C./60% RH, 2 M, Avg): 99.1%
Impurities RRT 0.71 (25° C./60% RH, 2 M, Avg): 0.08 area %
Impurities RRT 0.92 (25° C./60% RH, 2 M, Avg): NQ (≥0.02% and <0.05%)
Impurities RRT 1.16 (Cmpd 6) (25° C./60% RH, 2 M, Avg): 0.05 area %
Impurities RRT 1.29 (25° C./60% RH, 2 M, Avg): NQ (≥0.02% and <0.05%)
Impurities Total (25° C./60% RH, 2 M, Avg): 0.1 area %
Purity (%) (25° C./60% RH, 2 M, Avg): 99.9%
Water Content (%) (25° C./60% RH, 2 M, Avg): <0.04%
Water Content (%) (25° C./60% RH, 2 M, P1/P2): <0.04%
Assay (%) [6]: 98.9% and 99.3%
Impurities Total [6]: 0.05 area % and 0.1 area %
Purity (%) [6]: 99.9% and 99.8%
Assay (%) (25° C./60% RH, 3 M, Avg): 99.5%
Impurities RRT 1.06 (Cmpd 4) (25° C./60% RH, 3 M, Avg): 0.07 area %
Impurities RRT 1.16 (Cmpd 6) (25° C./60% RH, 3 M, Avg): 0.22 area %
Impurities Total (25° C./60% RH, 3 M, Avg): 0.3 area %
Purity (%) (25° C./60% RH, 3 M, Avg): 99.7%
Water Content (%) (25° C./60% RH, 3 M, Avg): <0.04%
Impurities RRT 1.06 (Cmpd 4) (25° C./60% RH, 3 M, P1/P2): 0.07 area %
Impurities RRT 1.16 (Cmpd 6) (25° C./60% RH, 3 M, P1/P2): 0.22 area %
Impurities Total (25° C./60% RH, 3 M, P1/P2): 0.3 area %
Structure (SMILES): COc1ccc(S(=O)(=O)Nc2cc(-c3c(O)ccc4ccccc34)c(O)c3ccccc23)cc1 [TTI-101]
